Results taken from US10081615B2, “Sulfamate derivative compounds for use in treating or alleviating pain” (Bio-Pharm Solutions Co., Ltd., priority 2013, dated 2018).
Where two headings read alike, the source gives them in different places.

Key:
[1] = test system: Post operation-induced pain model; test: Antiallodynic activity on post operative pain-induced pain model (von Frey); type: in vivo, Sprague-Dawley rats; conditions: 0.5 h; for ED50: ip
Method: Male Sprague-Dawley rats (Orient Bio, Korea), 300-320 g, total of 201 rats were used (details in Table 7). Rats were habituated at least 3 days before surgery and free access to food and water (room temperature and humidity were maintained at […] and 50±10%, respectively). The process of performing the post-operation model's surgery was adapted from Brennan et al (1996). At first, rats with allodynia (threshold valueless than 8 g) were excluded in Pre-von Frey Test. During the post-operation surgery, rats were anesthetized under gaseous anesthesia with 2% isoflurane. Rats were laid face down on a plate fixed at 37° C. to prevent against hypothermia. The ipsilateral plantar aspect (left side) of the hind paw was prepared in a sterile manner with a 10% povidone-iodine solution. A longitudinal incision (1 cm) (FIG. 2-A) was made with a blade (number 11) through the skin and fascia of the ipsilateral plantar aspect of the foot, starting from 0.5 cm below the proximal edge of the heel and extending toward the toes. Rats' plantar muscles were elevated and incised longitudinally (FIG. 2-B). After hemostasis with gentle pressure, the skin was opposed with 2 mattress sutures (4-0 Dafilon) (FIG. 2-C). The wound site was covered with a 10% povidone-iodine solution gauze and injected with antibiotics (gentamicin, 8 mg/kg, ip). The sutures were removed under halothane anesthesia approximately 30 hours later, at the end of post-operative day 1.
After 2-3 days of recovery, rats with a good response (threshold less than 4 g) in Pre-von Frey Test were selected. According to this response, we made three groups with each group having equal average responses: Group 1, post-operation and drug treated; Group 2, post-operation and vehicle treated; Group 3, no post-operation and vehicle treated. In this study, Group 3 was the sham control (positive) group. The group 2 was used to check for possible failures to generate post-operative pain.
For efficacy measure, the threshold value of group C was assigned 100% efficacy, and the percentage of the threshold values of group A compared to group C (for each different dose level) were calculated as the efficacies. Base on these efficacy values, ED50 was calculated using log fitting. If there was no clear ED50, then we marked the percent efficacy at the highest tested dose or larger than highest tested dose.
For pain threshold test, all animals were placed in a stainless steel meshed chamber and habituated for 30 min in the test box. The tactile sensitivity of the ipsilateral hind paw was measured using the up-and-down method (Dixon, 1980) with seven von Frey monofilaments (0.4, 1, 2, 4, 6, 8, and 15 g) using 3 trials. The 50% paw withdrawal threshold for each paw was calculated using the following formula: [Xth] log=[vFr] log+ky, where [vFr] is the force of the last von Frey filament used, k=0.2249 which is the average interval (in log units) between the von Frey monofilaments, y which is a value that depends upon the pattern of withdrawal responses, and Xth which is the threshold value (Dixon, 1980).
Drugs were dissolved 30% PEG400 for example 60, 0.9% saline for Pregabalin, 20% Tween80 for Tylenol, 0.9% saline for Topiramate. These vehicles were selected depending on the compound's solubility. Intraperitoneal injection (5 μl/g) was done for all drugs.
The relative values compared to the sham (% control) were calculated and shown in Table 8, which show an antiallodynic effect of the compound of examples on Post operation-induced pain model in rats.

[2] = test system: STZ-induced pain model; test: Antiallodynic activity in the streptozotocin (STZ)-induced diabetic pain model (von Frey); type: in vivo, Sprague-Dawley rats; conditions: 0.5 h; for ED50: ip
Method: Male, Sprague-Dawley rats (200-220 g, Nara Bio, Korea) were habituated for 1 week before surgery and allowed free access to food and water throughout the experimentation. Room temperature and humidity were maintained at 24±2° C. and 50±10%, respectively.
The STZ-induced diabetic pain model was established with a modified method of Rakieten et al. (1963) and Bertrand Aubel et al. (2004). All animals were fasted for 4 to 6 hr prior to STZ injection. STZ (sigma, USA) was dissolved in 20 mM sodium citrate buffer, pH 5.5 (Sigma. USA) and intraperitoneally injected at 75 mg/kg, 4 ul/g by bodyweight into the rats. Sham controls were injected with same volume of 20 mM sodium citrate buffer, pH 5.5, and vehicle controls were identical to STZ model except for administration of vehicles without treatment. Rats were supplied with 10% sucrose water for 2 days to protect against sudden hypoglycemia, 3 days later, the induction of diabetes was checked by the measurement of tail vein blood glucose levels with a blood glucose meter. (LifeScan OneTouch Ultra, USA). […]
Tactile sensitivity (mechanical allodynia) was evaluated using von Frey monofilaments before and after treatment of the compound of Examples and the animals were included in the study only if the withdrawal threshold value was less than 4 g. […] The tactile sensitivity for the ipsilateral hind paw was measured using the up-and-down method (Dixon, 1980) with seven von Frey monofilaments (0.4, 1, 2, 4, 6, 8, and 15 g) in 3 trials. […] The 50% paw withdrawal threshold for each paw was calculated using the following formula: [Xth] log=[vFr] log+ky where [vFr] is the force of the last von Frey used, k=0.2249 which is the average interval (in log units) between the von Frey monofilaments, and y is a value that depends upon the pattern of withdrawal responses (Dixon, 1980). […]
The relative values compared to the sham (% control) were calculated and shown in Table 9, which show an antiallodynic effect of the compound of examples on STZ-induced pain model in rats.

[3] = Rattus norvegicus, read-out: Post Operation: ED50 mg/kg

CC1(C)Oc2ccccc2[C@@H](COS(N)(=O)=O)O1 [Example 2, ((S)-2,2-dimethyl-4H-benzo[d][1,3]dioxin-4-yl)methyl sulfamate]
ED50 ([1]; rat, intraperitoneal, read-out: Post Operation: ED50): 14.9 mg/kg
ED50 ([2]; rat, intraperitoneal, read-out: STZ model: ED50): 27.4 mg/kg

CC1(C)Oc2ccccc2[C@H](COS([NH-])(=O)=O)O1.[Na+] [Example 58, Sodium (R)-(((2,2-dimethyl-4H-benzo[d][1,3]dioxin-4-yl)methoxy)sulfonyl)amide Trihydrate]
ED50 [1, 3]: 19.4 mg/kg

CC1(C)Oc2ccccc2C(COS([NH-])(=O)=O)O1.[Na+] (centres unmarked) [Example 60, Sodium (((2,2-dimethyl-4H-benzo[d][1,3]dioxin-4-yl)methoxy)sulfonyl)amide Trihydrate]
ED50 [1, 3]: 18.9 mg/kg
ED50 ([2]; Rattus norvegicus, read-out: STZ model: ED50 mg/kg): 16.1 mg/kg

[NH-]S(=O)(=O)OC[C@H]1OC2(CCCC2)Oc2ccccc21.[Na+] [Example 65, Sodium (S)-(((4H-spiro[benzo[d][1,3]dioxine-2,1′-cyclopentan]-4-yl)methoxy)sulfonyl)amide]
ED50 [1, 3]: 31.8 mg/kg
STZ model: effect (%) compared to control ([2]; rat, intraperitoneal, 100 mg/kg administered): (25.7%, 0.5 h)

CC1(C)Oc2ccccc2[C@H](COS([NH-])(=O)=O)O1.[K+] [Example 70, Potassium (R)-(((2,2-dimethyl-4H-benzo[d][1,3]dioxin-4-yl)methoxy)sulfonyl)amide]
Post Operation: effect (%) compared to control ([1]; rat, intraperitoneal, 18.9 mg/kg administered): (22.0%, 0.5 h)
